US7011844B2 (Alza Corporation, priority 1996, dated 2006)

Legend:
[1] = Protocol: The experiment was carried out using standard glass diffusion cells which consist of a donor compartment with a 7.5 ml capacity, and a receptor compartment with a 22 ml capacity. A circular piece of epidermis was placed in each diffusion cell (permeation area=2.27 cm^2) in a horizontal position between a lower capped receptor compartment and an upper capped donor compartment. The receptor compartment has both a venting tube (uncapped) and a sampling port (capped). The stratum corneum side of the epidermis faced the donor compartment. An O-ring was positioned between the epidermis and the donor compartment, and a clamp held the compartments together. The receptor solution, 22 ml of 0.001 M phosphoric acid solution, pH 3.2, was added to each receptor compartment. The cells were placed in a temperature controlled water bath shaker at 35° C. and allowed to come to temperature before the donor solution was added.
At each time interval, the receptor solution was removed from the test cell and replaced with an equal volume of fresh receptor solution previously equilibrated at 35° C. […] From the drug concentration and the volume of the receptor solutions, the area of permeation and the time interval, the flux of the drug through the epidermis was calculated as follows: (drug concentration×volume of receptor)/(area×time)=flux (μg/cm^2·hr).
Transdermal fluxes were obtained using human epidermis at 35° C. in standard diffusion cells using the procedure set forth in Example 1. FIG. 6 graphically depicts the results.
Transdermal fluxes were obtained using human epidermis at 35° C. in standard diffusion cells using the procedure set forth in Example 1.

skin = skin irritation on transdermal administration (inventors' finding); type: in vivo
From the text: According to this preferred embodiment, a pharmaceutically acceptable salt of fluoxetine is coadministered with an anti-irritant, preferably a corticosteroid such as hydrocortisone.
Other salts which provide the necessary flux and irritation levels can be determined in accordance with the principles of the teachings of this invention.

[2] = administered orally as fluoxetine hydrochloride (Prozac), 10 mg or 20 mg daily doses, cited from earlier work

effect of methyl laurate by itself on fluoxetine flux ([1]; 10% fluoxetine base in oil/petrolatum with 0-10% methyl laurate, FIG. 6)	increase of fluoxetine flux by addition of GML ([1]; 10% fluoxetine base in oil/petrolatum with 2.5-10% GML, FIG. 5)	effect of the combination of methyl laurate and GML on fluoxetine flux ([1]; 10% fluoxetine base in oil/petrolatum with 5% methyl laurate and 0-10% GML, FIG. 7, compared with GML or methyl laurate individually)	Compound	skin irritation when administered transdermally (skin; in vivo)	elimination half-life, averaging ([2]; average)	elimination half-life [2]	skin irritation when administered transdermally (skin; transdermal administration, base or salt form as labelled)
did not significantly increase	two to five fold	synergistic effect	CNCCC(Oc1ccc(C(F)(F)F)cc1)c1ccccc1 (racemic) [fluoxetine, (±)-N-methyl-γ-[4-(trifluoromethyl)-phenoxy] benzenepropanamine]	moderately to severely irritating	48 to 72 h	24 to 220 h	–
–	–	–	fluoxetine acetate	–	–	–	reduced irritation levels
